Measured values taken from patent US20210137951A1, “DRUG COMBINATION FOR TREATMENT OF AMYOTROPHIC LATERAL SCLEROSIS, PREPARATION METHOD AND USE THEREOF” (priority 2018, published 2021).

Key:
[1] = system: hSOD1-G93A transgenic mice; format: in vivo; settings: for Falling time (s) On 1st day of gavage / Falling time (s) On 7th day of gavage / Falling time (s) On 14th day of gavage / Falling time (s) On 21th day of gavage / Falling time (s) On 28th day of gavage: intragastric once a day, 40 mg/kg (positive control 2 mg/kg), rod 12 r/min, cut-off 10 min; for Falling time (s) On 1st day of gavage: 1 h after 1st administration; for Falling time (s) On 7th day of gavage: 1 h after 7th administration; for Falling time (s) On 14th day of gavage: 1 h after 14th administration; for Falling time (s) On 21th day of gavage: 1 h after 21st administration; for Falling time (s) On 28th day of gavage: 1 h after 28th administration; for Effect on delaying the progression of amyotrophic lateral sclerosis (in words): judged from fall time and mice surviving more than 120 days
Experimental: (§1) 10 two-months wild-type BALB/C mice were used as the normal control group, and 110 two-months hSOD1-G93A transgenic mice were randomly divided into 11 groups, 10 mice for each group, and 11 groups are blank group, positive control group, the drug compositions 1-3 of the present invention groups, and the control 1-6 groups, respectively.
All mice were adaptively fed for three weeks, and a rotating rod experiment was performed once a week. The diameter of the rotating rod was 3.5 cm, and its rotating speed was 12 r/min. Experiment on each mouse was carried out three times in parallel, with a 5 min interval. The longest time recorded was the fall time of mice, the mice with a fall time of shorter than 7 min in the third rotating rod experiment were excluded, and then mice received drugs by intragastric administration, in which the normal control group and the blank group were given physiological saline, while the positive control group, the drug combinations 1-3 groups, and the control groups 1-6 were given corresponding drugs, with the volume of 0.5 ml. Amongst, the gavage dose of positive control group was 2 mg/kg body weight, and the gavage dose of drug combinations 1-3 and controls 1-6 groups was both 40 mg/kg body weight. For all of groups, drugs were given once a day for 4 weeks. After 1 h of the 1st, 7th, 14th, 21st, and 28th intragastric administrations, a stick-rotation experiment was performed. In one experiment, each mouse was tested 3 times at interval of 5 minutes, and the longest time recorded was the fall time of mice. […] After the 28th gavage, the mice were continually fed, and the number of mice surviving for more than 120 days in each group was recorded, in which if they were placed in the supine position, the mice could not turn to the prone position within 30 S, and thus they were determined as dead.

[2] = system: hSOD1-G93A transgenic mice; test: Number of mice surviving more than 120 days; format: in vivo; settings: intragastric once a day for 4 weeks, 40 mg/kg (positive control 2 mg/kg), 8-9 mice per group
Experimental: as §1
All mice were adaptively fed for three weeks, and a rotating rod experiment was performed once a week. The diameter of the rotating rod was 3.5 cm, and its rotating speed was 12 r/min. Experiment on each mouse was carried out three times in parallel, with a 5 min interval. The longest time recorded was the fall time of mice, the mice with a fall time of shorter than 7 min in the third rotating rod experiment were excluded, and then mice received drugs by intragastric administration, in which the normal control group and the blank group were given physiological saline, while the positive control group, the drug combinations 1-3 groups, and the control groups 1-6 were given corresponding drugs, with the volume of 0.5 ml. Amongst, the gavage dose of positive control group was 2 mg/kg body weight, and the gavage dose of drug combinations 1-3 and controls 1-6 groups was both 40 mg/kg body weight. […] In one experiment, each mouse was tested 3 times at interval of 5 minutes, and the longest time recorded was the fall time of mice. […]

Molecule	Falling time (s) On 1st day of gavage [1] [s]	Falling time (s) On 7th day of gavage [1] [s]	Falling time (s) On 14th day of gavage [1] [s]	Falling time (s) On 21th day of gavage [1] [s]	Falling time (s) On 28th day of gavage [1] [s]	Effect on delaying the progression of amyotrophic lateral sclerosis (in words) ([1]; gavage 4 weeks)	Survival numbers (number of mice surviving for more than 120 days) [2]	Indexes for the fall time and the number of mice surviving more than 120 days, comparison between groups (in words) ([1]; gavage 4 weeks)
Nc1nc2ccc(OC(F)(F)F)cc2s1 [Positive control, Riluzole]	479.2 ± 31.8	389.5 ± 27.7	259.3 ± 29.5	187.4 ± 17.5	129.3 ± 15.4			
O=C(/C=C/c1ccc(O)c(O)c1)O[C@@H]1C[C@](O)(C(=O)O)C[C@@H](O)[C@H]1O [Control 1, 3-O-caffeoylquinic acid]	468.9 ± 26.1	315.3 ± 27.6	221.5 ± 22.8	127.8 ± 19.5	89.1 ± 18.5	showed to some extent the effect on delaying the progression of amyotrophic lateral sclerosis	3	
creatine phosphate sodium [Control 6]	475.8 ± 22.8	284.6 ± 19.3	155.8 ± 24.8	71.3 ± 12.3	44.78 ± 11.3	don't have obvious effect on delaying the progression of this disease	2	roughly equivalent to those in the blank group
